Experimental data reported in patent US20250090576A1, “METHODS FOR TREATING NONTUBERCULOUS MYCOBACTERIA DISEASES” (Microbion Corporation, priority 2022, published 2025).
≈ marks a conversion by molar mass, not a printed value. Like-named read-outs stand apart in the source and are kept apart here.

Assays:
M. abscessus MABS4 = experiment: MIC (Table 8); format: cell-based; details: Mycobacteroides abscessus
[1] = tested on: M. avium strain 104 (MAH 104) in THP-1 macrophages; experiment: Mycobacterial survival (CFU) in infected THP-1 macrophages; format: cell-based; details: 4-day and 7-day, drugs at MIC
Experimental: (§1) THP-1 macrophages were differentiated with 50 ng/ml PMA for 24 hours, followed by 24 hours in media prior to infection. Differentiated THP-1 macrophages were either infected with M. avium strains or M. abscessus strains for 1 hour with an multiplicity of infection (MOI) of 5 or uninfected. Cells were washed twice, followed by 1 hour of antibiotic treatment with 200 μg/ml of amikacin to remove extracellular bacteria. After the antibiotic step, cells were washed once more and BisEDT (BIZ) or amikacin was added once to selected wells (see in vitro doses below).
(§2) The treatments included: vehicle, amikacin, Soluble BisEDT (S Biz), Insoluble BisEDT (I Biz), and amikacin+BisEDT. The time points for sample preparation were 72 h for M. abscessus strains and 4- and 7-days post infection for M. avium strains. At the indicated timepoints cell media was removed and replaced with 400 ul of 0.1% triton x-100 in H2O for lysis. Wells were pipetted 25 times to disrupt cells then diluted and plated for CFU enumeration.

[2] = tested on: M. abscessus cystic fibrosis patient strain 01715 in THP-1 macrophages; experiment: as above; format: cell-based; details: CF patient strain 01715; after 3 days; drugs at MIC
Experimental: as §1, §2

[3] = tested on: M. abscessus strain 19977 in THP-1 macrophages; experiment: as above; format: cell-based; details: after 3 days, drugs at MIC
Experimental: as §1, §2

[4] = tested on: M. abscessus cystic fibrosis patient strain 00703 in THP-1 macrophages; experiment: as above; format: cell-based; details: CF patient strain 00703; after 3 days; drugs at MIC
Experimental: as §1, §2

M. abscessus MABS7 = experiment: MIC (Table 8); format: cell-based; details: Mycobacteroides abscessus
M. abscessus MABS1 = experiment: MIC (Table 8); format: cell-based; details: Mycobacteroides abscessus
[5] = tested on: CF patient strain DNA00703; experiment: MIC broth dilution, growth by turbidity/OD 595 nm; format: cell-based, M. abscessus; details: for MIC: Mycobacteroides abscessus
Experimental: (§3) Mycobacteria strains were used to determine MICs of BisEDT and amikacin. Strains included cystic fibrosis patient isolates from National Jewish Hospital. A range of high dose to low dose of antibiotics was used to determine bacteria susceptibility. M. avium strain 104, M. avium strain 3388, and CF patient strain DNA00133 were grown to log phase (7 days) while M. abscessus strain 19977, CF patient strain DNA00703, and CF patient strain DNA01715 achieved log phase (4 days) on 7H10 middlebrook media plates supplemented with 10% OADC (Oleic acid, Albumin, Dextrose, Catalase). […] For BisEDT, two types of compound physical states were tested. First, BisEDT was solubilized in DMSO (furthermore labeled soluble BisEDT). Second, BisEDT was made in suspension to mimic in vivo studies (furthermore labeled insoluble BisEDT). […] Control tubes containing no antibiotics were also included for each antibiotic tested. Inoculums of […] bacteria for each strain was measured with optical density (O.D.) at 595 nm. 10 μl of these inoculums were added to each antibiotic tube and incubated in a shaking incubator at 37° C. and 200 rpm. Slow growing stains were measured for growth after 10 days incubation while fast growing strains were incubated for 5 days. After incubation, 100 μl from each tube was pulled and placed in a 96-well plate for O.D. reading. Turbidity determined sensitive, intermediate, or resistant bacteria.

[6] = tested on: CF patient strain DNA01715; experiment: MIC broth dilution, growth by turbidity/OD 595 nm; format: cell-based, M. abscessus; details: for MIC: Mycobacteroides abscessus
Experimental: as §3

SMILES: NCC[C@H](O)C(=O)N[C@@H]1C[C@H](N)[C@@H](O[C@H]2O[C@H](CN)[C@@H](O)[C@H](O)[C@H]2O)[C@H](O)[C@H]1O[C@H]1O[C@H](CO)[C@@H](O)[C@H](N)[C@H]1O [amikacin]
- MIC (M. abscessus MABS4): 4 µg/mL (≈ 6.83 µM)
- mycobacterial survival (CFU, bacterial load) in THP-1 macrophages, in words [1]: greatly reduced the bacteria load
- mycobacterial survival (CFU, bacterial load) in THP-1 macrophages, in words [2]: bacteriostatic
- mycobacterial survival (CFU, bacterial load) in THP-1 macrophages, in words [3]: somewhat reduced CFU counts from initial infection rates, but the difference was not significant
- mycobacterial survival (CFU, bacterial load) in THP-1 macrophages, in words [4]: bacteriostatic
- MIC (M. abscessus MABS7): 2 µg/mL (≈ 3.42 µM)
- MIC (M. abscessus MABS1): 16 µg/mL (≈ 27.3 µM)
- Sensitivity phenotype (R/I/S) ([5]; 1 μg/mL): R
- Sensitivity phenotype (R/I/S) ([5]; 2 μg/mL): R
- Sensitivity phenotype (R/I/S) ([5]; 4 μg/mL): R
- Sensitivity phenotype (R/I/S) ([5]; 8 μg/mL): R
- Sensitivity phenotype (R/I/S) ([5]; 16 μg/mL): I
- Sensitivity phenotype (R/I/S) ([5]; 32 μg/mL): I
- Sensitivity phenotype (R/I/S) ([5]; 64 μg/mL): S
- Sensitivity phenotype (R/I/S) ([5]; 128 μg/mL): S
- MIC ([5]; M. abscessus strain 00703 (Table 4), read-out: MIC determined for the strain, used for treatment of infected macrophages): 64 µg/mL (≈ 109 µM)
- MIC ([5]; M. abscessus strain from patient 00703, read-out: MIC): 64 µg/mL (≈ 109 µM)
- Sensitivity phenotype (R/I/S) ([6]; 1 μg/mL): R
- Sensitivity phenotype (R/I/S) ([6]; 2 μg/mL): R
- Sensitivity phenotype (R/I/S) ([6]; 4 μg/mL): R
- Sensitivity phenotype (R/I/S) ([6]; 8 μg/mL): I
- Sensitivity phenotype (R/I/S) ([6]; 16 μg/mL): S
- Sensitivity phenotype (R/I/S) ([6]; 32 μg/mL): S
- Sensitivity phenotype (R/I/S) ([6]; 64 μg/mL): S
- Sensitivity phenotype (R/I/S) ([6]; 128 μg/mL): S
- MIC ([6]; M. abscessus strain 01715 (Table 4), read-out: MIC determined for the strain, used for treatment of infected macrophages): 16 µg/mL (≈ 27.3 µM)
- MIC ([6]; M. abscessus strain from patient 01715, read-out: MIC): 16 µg/mL (≈ 27.3 µM)
